From PubChem BioAssay AID1963443 (Molecular Pharmacology Branch, DTP, NCI, 2024)

System: MDA-MB-231 complex spheroids, growth inhibition
Test: Anticancer human tumor MDA-MB-231 cell line growth inhibition [Asc];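 also: spheroids exposed to compounds for 7 days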
Details: for IC50: curve of first compound; for viability, T/C: stronger effect = lower value
Description: Multicellular complex tumor spheroid response to apoptosis pathway targeting inhibitors Alrizomadlin, Pelcitoclax, and Dasminapant in combination with a variety of drugs and investigational agents in selected tumor cell lines
The MDM2 inhibitor alrizomadlin, the Bcl-2/Bcl-xL inhibitor pelcitoclax, and the IAPs inhibitor dasminapant were evaluated both individually and in combination with standard of care and investigational anticancer small molecules within a complex spheroid model of solid tumors. . Complex spheroids include a stromal component modeled by human endothelial cells (HUVEC) and fibroblasts modeled by human mesenchymal stem cells (MSCs). The concentration ranges selected for each drug and investigational agent were based upon clinically achievable concentrations if the clinical Cmax of the agent was known.
Compounds. The drugs and investigational agents: alrizomadlin (APG-115; NSC831270), pelcitoclax (APG-1252; NSC835773), dasminapant (APG-1387;NSC834197), TAK-243 (NSC785004), copanlisib (NSC809693), olaparib (NSC753686), talazoparib (NSC767125), cobimetinib (NSC 768068), eltanexor (KPT-8602, NSC 794443), abemaciclib (NSC 768073), sotorasib (NSC818433), adagrasib (NSC 831453), MRTX-1133 (NSC 836407), Iadademestat (ORY1001, NSC 806812), and RMC-4630 (NSC839698), were obtained from the NCI Developmental Therapeutics Program Chemical Repository. The FDA-approved anticancer drug set is available from the Developmental Therapeutics Program at https://dtp.cancer.gov/organization/dscb/obtaining/available plates.htm. […] The stock solutions were prepared in dimethyl sulfoxide (DMSO, Sigma-Aldrich, St. Louis, MO, cat. D2650) at 800-fold the tested concentration and stored at -70 degrees C prior to their use. All drugs and investigational agents were tested over a range starting from a high concentration at or near the clinical Cmax and decreasing in half-log increments. If the clinical Cmax for an agent had not been determined, the highest concentration tested was 10 microM.
The patient-derived cancer (PDC) cell lines include five colon adenocarcinomas: 186277-243-T-J2-PDC, 616215-338-R-J1-PDC, 439559-082-T-J2-PDC, 463943-066-T-J2-PDC, and 519858-162-T-J1-PDC; three pancreatic carcinomas: 323965-272-R-J2-PDC, 521955-158-R6-J3-PDC, and 521955-158-R2-J5-PDC; two uterine sarcomas: 327498-152-R-J2-PDC and 993429-296-R-J1-PDC; two rhabdomyosarcomas: 755483-174-R-J1-PDC and 772245-204-R-J1-PDC; two soft tissue sarcomas: 126254-015-R-J1-PDC and 494315-158-R-J1-PDC; two malignant fibrous histiocytomas: 317291-083-R-J1-PDC and 596521-263-R-J1-PDC; two breast carcinomas: 171881-019-R-J1-PDC and 885512-296-R-J2-PDC; and one ovarian carcinoma: 6556581-035-R-J-PDC were obtained from the NCI PDMR, (https://pdmr.cancer.gov). The established cell lines HSSY-2 synovial sarcoma (RRID:CVCL 8719), SYO-1 synovial sarcoma (RRID:CVCL_7146), MPNST malignant peripheral neural sheath tumor were obtained from the Sloan Kettering Institute. The following established cell lines were purchased from the American Type Culture Collection (ATCC, Manassas, VA), Sor the received from the NCI repository:, PANC-1 pancreatic carcinoma (CRL-1469, RRID:CVCL_0480), OVCAR-5 ovarian carcinoma (RRID:CVCL_1628), OVCAR-8 ovarian carcinoma (RRID:CVCL_1629), , MCF-7 breast carcinoma (CRL-12584, RRID:CVCL_0031), MDA-MB-231 breast carcinoma (CRL-12532, RRID:CVCL_0062), NCI-H1876 small cell lung carcinoma (CRL-5902, RRID:CVCL_1503), NCI-H510A small cell lung carcinoma (HTB-184, RRID:CVCL_1565), NCI-H1417 (CRL-5869, RRID:CVCL_1469), and NCI-H196 small cell lung carcinoma (CRL-5823, RRID:CVCL_1509). Dr. Peter Houghton (Greehey Children's Cancer Research Institute, University of Texas Health Science Center, San Antonio, TX) provided Rh-18 rhabdomyosarcoma (RRID:CVCL_1659). Pooled donor human umbilical vein endothelial cells (HUVEC, Lonza, cat. CC-2519) and human mesenchymal stem cells (hMSC, Lonza, cat. PT-2501) were purchased from Lonza (Walkersville, MD).
Cell Culture. […]

[1] = second compound 0.03 µM, first compound 0.0316 µM
[2] = second compound 0.03 µM, first compound 0.1 µM
[3] = second compound 0.0949 µM, first compound 0.0316 µM
[4] = second compound 0.0949 µM, first compound 0.1 µM
[5] = second compound 0.3 µM, first compound 0.0316 µM
[6] = second compound 0.3 µM, first compound 0.1 µM
[7] = second compound 0.949 µM, first compound 0.0316 µM
[8] = second compound 0.949 µM, first compound 0.1 µM
[9] = second compound 3 µM, first compound 0.0316 µM
[10] = second compound 3 µM, first compound 0.1 µM

## Cn1ncnc1[C@H]1c2n[nH]c(=O)c3cc(F)cc(c23)N[C@@H]1c1ccc(F)cc1 + CCN1C(C(=O)NC23CCC(C(=O)O)(CC2)CC3)C(c2cccc(Cl)c2F)C2(C(=O)Nc3cc(Cl)ccc32)C12CCCCC2
Second compound 0.03 µM
  IC50: > 0.1 µM
Second compound 0.0949 µM
  IC50: > 0.1 µM
Second compound 0.3 µM
  IC50: > 0.1 µM
Second compound 0.949 µM
  IC50: > 0.1 µM
Second compound 3 µM
  IC50: > 0.1 µM
Second compound 0.03 µM, first compound 0.000316 µM
  viability, T/C: 101%
Second compound 0.03 µM, first compound 0.001 µM
  viability, T/C: 96.3%
Second compound 0.03 µM, first compound 0.00316 µM
  viability, T/C: 90.4%
Second compound 0.03 µM, first compound 0.01 µM
  viability, T/C: 96.2%
[1]
  viability, T/C: 85%
[2]
  viability, T/C: 86%
Second compound 0.0949 µM, first compound 0.000316 µM
  viability, T/C: 112%
Second compound 0.0949 µM, first compound 0.001 µM
  viability, T/C: 101%
Second compound 0.0949 µM, first compound 0.00316 µM
  viability, T/C: 93.6%
Second compound 0.0949 µM, first compound 0.01 µM
  viability, T/C: 95.9%
[3]
  viability, T/C: 90.2%
[4]
  viability, T/C: 88.4%
Second compound 0.3 µM, first compound 0.000316 µM
  viability, T/C: 110%
Second compound 0.3 µM, first compound 0.001 µM
  viability, T/C: 110%
Second compound 0.3 µM, first compound 0.00316 µM
  viability, T/C: 98.5%
Second compound 0.3 µM, first compound 0.01 µM
  viability, T/C: 102%
[5]
  viability, T/C: 89.8%
[6]
  viability, T/C: 85.4%
Second compound 0.949 µM, first compound 0.000316 µM
  viability, T/C: 108%
Second compound 0.949 µM, first compound 0.001 µM
  viability, T/C: 109%
Second compound 0.949 µM, first compound 0.00316 µM
  viability, T/C: 102%
Second compound 0.949 µM, first compound 0.01 µM
  viability, T/C: 97.8%
[7]
  viability, T/C: 93.6%
[8]
  viability, T/C: 91.8%
Second compound 3 µM, first compound 0.000316 µM
  viability, T/C: 100%
Second compound 3 µM, first compound 0.001 µM
  viability, T/C: 99.4%
Second compound 3 µM, first compound 0.00316 µM
  viability, T/C: 94.4%
Second compound 3 µM, first compound 0.01 µM
  viability, T/C: 91.8%
[9]
  viability, T/C: 82%
[10]
  viability, T/C: 87.8%

## O=C(c1cc(Cc2n[nH]c(=O)c3ccccc23)ccc1F)N1CCN(C(=O)C2CC2)CC1 + CCN1C(C(=O)NC23CCC(C(=O)O)(CC2)CC3)C(c2cccc(Cl)c2F)C2(C(=O)Nc3cc(Cl)ccc32)C12CCCCC2
Second compound 0.03 µM
  IC50: > 10 µM
Second compound 0.0949 µM
  IC50: > 10 µM
Second compound 0.3 µM
  IC50: > 10 µM
Second compound 0.949 µM
  IC50: > 10 µM
Second compound 3 µM
  IC50: > 10 µM
[1]
  viability, T/C: 99.1%
[2]
  viability, T/C: 93.9%
Second compound 0.03 µM, first compound 0.316 µM
  viability, T/C: 93.8%
Second compound 0.03 µM, first compound 1 µM
  viability, T/C: 88.2%
Second compound 0.03 µM, first compound 3.16 µM
  viability, T/C: 88.8%
Second compound 0.03 µM, first compound 10 µM
  viability, T/C: 73.8%
[3]
  viability, T/C: 106%
[4]
  viability, T/C: 104%
Second compound 0.0949 µM, first compound 0.316 µM
  viability, T/C: 98.8%
Second compound 0.0949 µM, first compound 1 µM
  viability, T/C: 99.5%
Second compound 0.0949 µM, first compound 3.16 µM
  viability, T/C: 90.2%
Second compound 0.0949 µM, first compound 10 µM
  viability, T/C: 77.3%
[5]
  viability, T/C: 103%
[6]
  viability, T/C: 103%
Second compound 0.3 µM, first compound 0.316 µM
  viability, T/C: 100%
Second compound 0.3 µM, first compound 1 µM
  viability, T/C: 97.5%
Second compound 0.3 µM, first compound 3.16 µM
  viability, T/C: 93%
Second compound 0.3 µM, first compound 10 µM
  viability, T/C: 80.3%
[7]
  viability, T/C: 102%
[8]
  viability, T/C: 107%
Second compound 0.949 µM, first compound 0.316 µM
  viability, T/C: 103%
Second compound 0.949 µM, first compound 1 µM
  viability, T/C: 101%
Second compound 0.949 µM, first compound 3.16 µM
  viability, T/C: 97.9%
Second compound 0.949 µM, first compound 10 µM
  viability, T/C: 80.7%
[9]
  viability, T/C: 99.1%
[10]
  viability, T/C: 103%
Second compound 3 µM, first compound 0.316 µM
  viability, T/C: 94.8%
Second compound 3 µM, first compound 1 µM
  viability, T/C: 93.4%
Second compound 3 µM, first compound 3.16 µM
  viability, T/C: 86.7%
Second compound 3 µM, first compound 10 µM
  viability, T/C: 77.8%
